# Measurements from US20260317310A1, “BENZO SIX-MEMBERED HETEROCYCLIC GSPT1 PROTEIN DEGRADATION AGENT AND USE THEREOF” (China Pharmaceutical University, priority 2023, published 2026).
# “Also recorded” adds a separate entry of the source.
# How the values were obtained:
# [1] = In vivo pharmacokinetic study in rats (IV and PO); set-up: species or system rat (SD); conditions: rat; for bioavailability: plasma, PO 10 mg/kg (IV 2 mg/kg); for clearance rate relative to CC-90009 / half-life relative to CC-90009 / initial plasma concentration relative to CC-90009 / plasma drug exposure level relative to CC-90009: IV
# Method: Sample collection and preparation: After SPF SD rats (male, 210-230 g, 42-48 days, RILD Liver) in a good growth state were dosed intravenously at 2 mg/kg and orally at 10 mg/kg, blood samples were collected via the orbit at different blood collection time points and transferred to centrifuge tubes containing an anticoagulant; the intravenous blood collection time points were 0.08 hours, 0.25 hours, 0.5 hours, 1 hour, 2 hours, 4 hours, 6 hours, 8 hours, and 24 hours, and the oral blood collection time points were 0.25 hours, 0.5 hours, 1 hour, 2 hours, 4 hours, 6 hours, 8 hours, and 24 hours. The blood samples were immediately centrifuged at 4° C. and 8000 rpm for 10 minutes, and the plasma was collected and stored in an ultra-low-temperature freezer at −80° C. until it was analyzed by LC-MS/MS.
# Pharmacokinetic data analysis: Pharmacokinetic parameters of the compounds were calculated using pharmacokinetic software in a non-compartmental model. The peak plasma concentration (Cmax) and the time to reach the peak plasma concentration (Tmax) were taken as observation values. Parameters such as the half-life T1/2, the areas under the plasma concentration-time curve AUClast and AUCinf, the apparent volume of distribution Vss, and the clearance rate CL were determined through regression analysis of the linear terminal portion of the logarithmic plasma concentration-time curve and the linear trapezoidal rule.
# GSPT1 [2] = target: T1, GSPT1 (Homo sapiens, UniProt P15170); assay: Degradation of GSPT1 in MV4-11 cells (FIG. 1C, 1D); type: cell-based; set-up: endogenous in cells; conditions: FIGS. 1 and 2
# T1 sequence (P15170 whole entry): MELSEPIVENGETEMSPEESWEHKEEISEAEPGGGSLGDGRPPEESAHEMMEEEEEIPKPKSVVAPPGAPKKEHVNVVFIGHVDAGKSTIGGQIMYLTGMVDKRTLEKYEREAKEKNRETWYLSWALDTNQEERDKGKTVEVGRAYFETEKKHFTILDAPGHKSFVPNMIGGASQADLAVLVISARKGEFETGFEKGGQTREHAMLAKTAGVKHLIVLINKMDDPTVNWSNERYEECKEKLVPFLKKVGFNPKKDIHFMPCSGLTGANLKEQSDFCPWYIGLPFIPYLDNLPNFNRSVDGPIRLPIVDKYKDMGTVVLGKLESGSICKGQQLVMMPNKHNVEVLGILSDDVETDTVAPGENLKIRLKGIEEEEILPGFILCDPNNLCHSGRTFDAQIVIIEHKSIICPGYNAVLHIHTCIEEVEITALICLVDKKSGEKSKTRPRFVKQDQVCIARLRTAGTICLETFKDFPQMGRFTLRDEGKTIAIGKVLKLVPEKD
# [3] = Metabolic stability in in vitro rat liver microsomes; type: in vitro ADME; conditions: NADPH, 37° C.
# Excerpt: RLMs were purchased from RILD Liver.
# GSPT1 [4] = target: T1, GSPT1; assay: Degradation of GSPT1 in KG-1 cells (immunoblot, 200 nM, 4 h); type: cell-based; set-up: endogenous in cells; host or cells: KG-1; conditions: FIGS. 1 and 2
# Method: KG-1 cells (ATCC) were grown in an IMDM culture medium (containing 20% FBS). After centrifugation and counting, the cell concentration was adjusted. The cells were plated onto 6-well plates at 10^6 cells/well, with 1350 μL per well. 150 μL of DMSO and the test compounds of the present disclosure (compound concentration: 200 nM) were added. The plates were incubated in an incubator at 37° C. with 5% CO2 for 4 hours. The cells were centrifuged, and the culture medium was discarded. PBS was added to wash the cells and then discarded. Whole cell lysates were prepared using a protease inhibitor cocktail (100×, Fude Biological), a protein phosphatase inhibitor cocktail (100×, Fude Biological), SuperNuclease (Beyotime), and a high-intensity RIPA lysis buffer (Thermo Fisher) and placed on ice for 30 minutes. After centrifugation, the cell debris precipitates were discarded, and the whole cell lysate supernatants were collected and transferred to new centrifuge tubes. After a BCA protein assay, samples were prepared using a 5× loading buffer (Thermo Fisher). […] Signals were detected using a MINICHEMI™ imaging system. […]
# 22RV1 xenograft = assay: In vivo pharmacodynamic study in 22RV1 prostate cancer xenograft mouse model; set-up: species or system 22RV1 cells in BABL/c Nude mouse
# Method: The 22RV1 cells (Cell Bank, Chinese Academy of Sciences) used in this experiment were cultured in a 1640 culture medium supplemented with 10% FBS in an incubator containing CO2 at 37° C. Before the cells were continuously sub-cultured to the tenth generation, 22RV1 cells in the logarithmic growth phase were used, and the cell concentration was adjusted to 5×10^7 cells/mL with a serum-free culture medium. Each BABL/c Nude mouse was inoculated with […] of the cell suspension by subcutaneous injection on the right dorsal side (near the axilla) under sterile conditions. When the mean tumor volume of the tumor-bearing mice reached approximately 50-100 mm^3, the mice were randomly divided into 4 groups of 8, with the tumor volume in each group being roughly the same. The day of grouping and administration was defined as day 0. The animals in each treatment group were given a compound once daily by oral gavage at 60 mg/kg.
# The body weight and tumor volume of the animals were measured every other day.
# (§1) Experimental indicator: The anti-tumor efficacy of the compounds was evaluated using the relative tumor growth inhibition rate (TGI). Tumor weight TGI (%)={1−[(final average tumor weight of experimental group)/(final average tumor weight of control group of tumor-bearing mice without administration)]}×100%.
# MV411 xenograft = assay: In vivo pharmacodynamic study in MV411 acute myeloid leukemia xenograft mouse model; set-up: species or system human leukemia cells in BABL/c Nude mouse
# Method: (§2) The human leukemia cells MV411 (Cell Bank, Chinese Academy of Sciences) used in this experiment were cultured in an IMDM culture medium supplemented with 10% FBS in an incubator containing CO2 at 37° C. Before the cells were continuously sub-cultured to the tenth generation, MV411 cells in the logarithmic growth phase were used, and the cell concentration was adjusted to 1×10^8 cells/mL with a serum-free culture medium. Each BABL/c Nude mouse (Jiangsu GemPharmatech Co., Ltd., female, 4-6 weeks old, 14-16 g) was inoculated with […] of the cell suspension by subcutaneous injection on the right dorsal side (near the axilla) under sterile conditions. When the mean tumor volume of the tumor-bearing mice reached approximately 100 mm^3, the mice were randomly divided into groups, with the tumor volume in each group being roughly the same. The day of grouping and administration was defined as day 0. The animals in each treatment group were given a compound once daily by oral gavage at 15 mg/kg, 30 mg/kg, or 60 mg/kg. The body weight and tumor volume of the animals were measured every other day.
# as §1, with “administration)]}×100%. Tumor volume TGI (%)=[1−relative tumor volume of experimental group/relative tumor volume of control group of tumor-bearing mice without administration]×100%.” for “administration)]}×100%.”
# [5] = Body weight in MV411 xenograft mice; type: in vivo, BABL/c Nude mouse; conditions: A-10 15, 30, 60 mg/kg, A-42 60 mg/kg, oral
# Method: as §2
# GSPT1 [6] = target: T1, GSPT1; assay: Time-dependent degradation of GSPT1 in AML cells (FIG. 2); type: cell-based; set-up: KG-1 cells (ATCC) were grown in an IMDM culture medium; endogenous in cells; host or cells: KG-1
# KG-1 cells = assay: Antiproliferative activity against KG-1 cells (CCK8, 72 h); type: cell-based; conditions: Homo sapiens
# Method: KG-1 cells in the logarithmic growth phase were diluted in a culture medium (RPMI+10% FBS) and plated onto 96-well plates at 5000 cells/well, and the plates were incubated in an incubator at 37° C. with 5% CO2 for 24 hours. 10 mM stock solutions of the test compounds of the present disclosure in DMSO were prepared and diluted with the culture medium to set 9 concentration gradients. Three replicate wells were set for each concentration. After compound addition, the plates were incubated in an incubator at 37° C. with 5% CO2 for 72 hours. The cell proliferation was assessed using the CCK8 method. The cell growth inhibition IC50 values of the compounds were determined using an enzyme labeling method. The IC50 values were calculated using GraphPad Prism 7 software.
# The antiproliferative activity of the compounds against KG-1 cells is shown in Table 2, where A represents IC50<1 nM, B represents 1<IC50<10 nM, C represents 10 nM≤IC50<100 nM, D represents 100 nM≤IC50<1000 nM, and E represents IC50≥1000 nM.
# [7] = 60 mg/kg once daily oral gavage
structure (smiles),measurement,setting,value
"O=C1CCC(N2Cc3cc(CNC(=O)C4=Cc5ccccc5OC4)ccc3C2=O)C(=O)N1 (centres unmarked) [Compound A-1, N-((2-(2,6-Dioxopiperidin-3-yl)-1-oxoisoindolin-5-yl)methyl)-2H-chromene-3-carboxamide]",bioavailability,[1],19.3 ± 3.4%
same,clearance rate relative to CC-90009,[1]; compared to CC-90009,less than that of the clinical drug CC-90009
same,half-life relative to CC-90009,[1]; compared to CC-90009,close to that of CC-90009
same,initial plasma concentration relative to CC-90009,[1]; compared to CC-90009,greatly superior to those of CC-90009
same,plasma drug exposure level relative to CC-90009,[1]; compared to CC-90009,greatly superior to those of CC-90009
same,dependence of GSPT1 degradation on concentration and time,GSPT1 [2],concentration-dependent and time-dependent; also recorded: more significant than that of CC-90009
same,RLM CL,[3],3.75 µL/min/mg
same,RLM T1/2,[3],6.1657 h
same,dependence of GSPT1 degradation on concentration and time,GSPT1 [4],concentration-dependent and time-dependent; also recorded: more significant than that of CC-90009
"O=C1CCC(N2Cc3cc(CNC(=O)C4=Cc5cc(OC(F)(F)F)ccc5OC4)ccc3C2=O)C(=O)N1 (centres unmarked) [Compound A-10, N-((2-(2,6-Dioxopiperidin-3-yl)-1-oxoisoindolin-5-yl)methyl)-6-trifluoromethoxy-2H-chromene-3-carboxamide]",TGI,22RV1 xenograft; [7],95.10%
same,TGI compared to CC-90009 and enzalutamide,"22RV1 xenograft; 22RV1 xenograft, 60 mg/kg oral gavage",significantly better than those of the clinical molecule CC-90009 and the commercially available drug enzalutamide
same,tumor weight TGI,MV411 xenograft; 15 mg/kg once daily oral gavage,20.82%
same,tumor weight TGI,MV411 xenograft; 30 mg/kg once daily oral gavage,56.61%
same,tumor weight TGI,MV411 xenograft; [7],59.76%
same,in vivo anti-tumor effect compared to CC-90009,"MV411 xenograft; MV411 xenograft, oral gavage, vs CC-90009",significantly better than that of the clinical molecule CC-90009
same,weight loss in mice,[5],no significant weight loss
same,bioavailability,[1],22.9 ± 12.6%
same,clearance rate relative to CC-90009,[1]; compared to CC-90009,one third of that of CC-90009
same,half-life relative to CC-90009,[1]; compared to CC-90009,longer than that of CC-90009
same,initial plasma concentration relative to CC-90009,[1]; compared to CC-90009,much higher than that of CC-90009
same,plasma drug exposure level relative to CC-90009,[1]; compared to CC-90009,nearly four times that of CC-90009
same,exposure level relative to CC-90009,"[1]; oral, compared to CC-90009",nearly three times that of CC-90009
same,peak,"[1]; oral, compared to CC-90009",relatively high peak
same,time to peak,"[1]; oral, compared to CC-90009",relatively small time to peak
same,dependence of GSPT1 degradation on concentration and time,GSPT1 [2],concentration-dependent
same,time-dependent degradation of GSPT1,GSPT1 [6],time-dependent
same,dependence of GSPT1 degradation on concentration and time,GSPT1 [4],concentration-dependent
"O=C1CCC(N2Cc3cc(CNC(=O)C(F)(F)c4ccc(Cl)cc4)ccc3C2=O)C(=O)N1 (centres unmarked) [CC-90009, reference compound]",bioavailability,[1],31.2 ± 9.1%
"O=C1CCC(N2Cc3c(ccc(CNC(=O)C4=Cc5cc(OC(F)(F)F)ccc5OC4)c3F)C2=O)C(=O)N1 (centres unmarked) [Compound A-42, N-((2-(2,6-Dioxopiperidin-3-yl)-4-fluoro-1-oxoisoindolin-5-yl)methyl)-6-(trifluoromethoxy)-2H-chromene-3-carboxamide]",in vivo anti-tumor effect compared to MRT-2359,"MV411 xenograft; MV411 xenograft, 60 mg/kg oral gavage, vs MRT-2359",comparable to that of the clinical molecule MRT-2359
same,weight loss in mice,[5],no significant weight loss
same,bioavailability,[1],9.8 ± 1.5%
same,clearance rate relative to CC-90009,[1]; compared to CC-90009,lower clearance rate
same,plasma drug exposure level relative to CC-90009,[1]; compared to CC-90009,fourteen times
same,exposure level relative to CC-90009,"[1]; oral, compared to CC-90009",four times
Cc1cc2c(cc1Cl)C=C(C(=O)NCc1ccc3c(c1)CN(C1CCC(=O)NC1=O)C3=O)CO2 (centres unmarked) [Compound A-28],IC50,KG-1 cells,10 to 100 nM
